# What was measured:
# Experiment in all cases: relative viability (nuclei count vs DMSO), 5 days (fraction); higher = more cells survive
# [1] = compound: CC1=C(C(=NN1)C)CC2=C(C3=C(S2)N(C(=O)N(C3=O)C)CC(C)C)C(=O)N4C[C@@H](CO4)O + CC(=O)Nc1cccc(-n2c(=O)n(C3CC3)c(=O)c3c(Nc4ccc(I)cc4F)n(C)c(=O)c(C)c32)c1 [Trametinib] (partner 0.02 µM)
# Summary of the method: (§1)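 Each reported value is a median over duplicate plates. It expresses relative viability: treated-well nuclei count divided by vehicle-well nuclei count. Lung cancer cell lines in 1536-well plates were dosed by pin tool a day after seeding, alone with one drug or with a fixed anchor-drug dose plus five library-drug doses (not always all listed) in √10 steps, and nuclei were counted after 5 days.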
# [2] = compound: CC1=C(C(=NN1)C)CC2=C(C3=C(S2)N(C(=O)N(C3=O)C)CC(C)C)C(=O)N4C[C@@H](CO4)O + N=C(N)NC(=N)NCCc1ccccc1 [Phenformin] (partner 250 µM)
# Summary of the method: as §1
# [3] = compound: CC1=C(C(=NN1)C)CC2=C(C3=C(S2)N(C(=O)N(C3=O)C)CC(C)C)C(=O)N4C[C@@H](CO4)O + Nc1ncn([C@H]2C[C@H](O)[C@@H](CO)O2)c(=O)n1 [Decitabine] (partner 2 µM)
# Summary of the method: as §1
# IDH-C35 + Navitoclax = compound: Cc1ccccc1C(C(=O)NC1CCCCC1)N(C(=O)Cn1ccnc1C)c1cccc(F)c1 [IDH-C35] + CC1(C)CCC(c2ccc(Cl)cc2)=C(CN2CCN(c3ccc(C(=O)NS(=O)(=O)c4ccc(N[C@H](CCN5CCOCC5)CSc5ccccc5)c(S(=O)(=O)C(F)(F)F)c4)cc3)CC2)C1 [Navitoclax] (partner 0.5 µM)
# Summary of the method: as §1
Cell Line,relative viability ([1]; first compound 0.0025 µM),relative viability ([1]; first compound 0.007906 µM),relative viability ([1]; first compound 0.025 µM),relative viability ([1]; first compound 0.07906 µM),relative viability ([1]; first compound 0.25 µM),relative viability ([2]; first compound 0.0025 µM),relative viability ([2]; first compound 0.007906 µM),relative viability ([2]; first compound 0.025 µM),relative viability ([2]; first compound 0.07906 µM),relative viability ([2]; first compound 0.25 µM),relative viability ([3]; first compound 0.0025 µM),relative viability ([3]; first compound 0.007906 µM),relative viability ([3]; first compound 0.025 µM),relative viability ([3]; first compound 0.07906 µM),relative viability ([3]; first compound 0.25 µM),relative viability (IDH-C35 + Navitoclax; first compound 0.08 µM),relative viability (IDH-C35 + Navitoclax; first compound 0.253 µM),relative viability (IDH-C35 + Navitoclax; first compound 0.8 µM),relative viability (IDH-C35 + Navitoclax; first compound 2.53 µM),relative viability (IDH-C35 + Navitoclax; first compound 8 µM)
NCI-H1755,0.829,0.818,0.745,0.73,0.761,0.637,0.607,0.589,0.583,0.622,0.699,0.811,0.742,0.646,0.696,0.981,1.01,0.973,0.976,0.96
HCC-78,0.796,0.77,0.775,0.663,0.811,0.795,0.842,0.574,0.671,0.575,0.658,0.774,0.644,0.636,0.631,0.86,0.762,0.763,0.62,0.656
LOU-NH91,0.802,0.756,0.812,0.826,0.792,0.763,0.752,0.731,0.844,0.733,0.83,0.798,0.839,0.864,0.823,0.69,0.78,0.722,0.635,0.735
NCI-H3122,0.226,0.305,0.254,0.187,0.229,0.385,0.365,0.364,0.392,0.375,0.393,0.454,0.47,0.448,0.389,1.03,0.997,0.96,1.01,1.08
HCC-827,0.556,0.542,0.529,0.51,0.521,0.379,0.408,0.425,0.407,0.399,0.216,0.34,0.323,0.408,0.302,0.975,0.997,1.05,0.949,1.03
SK-LU-1,0.47,0.409,0.326,0.344,0.374,0.338,0.234,0.191,0.202,0.223,0.524,0.475,0.448,0.561,0.618,0.788,0.682,0.804,1.01,0.652
NCI-H1975,0.38,0.358,0.403,0.491,0.33,0.401,0.426,0.401,0.389,0.376,0.37,0.41,0.393,0.444,0.423,1.12,1.34,1.03,1.09,1.01
NCI-H1651,0.865,0.861,0.849,0.798,0.819,0.374,0.214,0.259,0.239,0.261,0.519,0.699,0.538,0.579,0.567,1.03,1.01,0.972,1.03,1.01
NCI-H441,0.532,0.424,0.458,0.478,0.436,0.902,0.943,0.799,0.847,0.865,0.215,0.255,0.298,0.267,0.272,0.694,,0.568,0.582,0.675
LCLC-97TM1,0.178,0.184,0.249,0.158,0.189,0.483,0.432,0.429,0.477,0.51,0.265,0.237,0.219,0.242,0.224,0.4,0.474,0.367,,0.35
NCI-H727,0.348,0.374,0.442,0.379,0.34,0.424,0.504,0.486,0.489,0.372,0.807,0.915,0.862,0.943,0.969,0.377,0.429,0.371,0.399,0.35
NCI-H1355,0.461,0.423,0.472,0.402,0.442,0.493,0.473,0.429,0.481,0.453,0.443,0.375,0.346,0.324,0.332,0.952,0.928,0.934,0.938,0.996
HOP-62,0.365,0.402,0.408,0.435,0.4,0.649,0.564,0.656,0.624,0.861,0.197,0.218,0.268,0.165,0.279,1.07,0.939,0.84,0.974,0.891
NCI-H2085,0.844,0.586,0.575,0.608,0.549,0.677,0.674,0.589,0.571,0.44,0.526,0.543,0.536,0.473,0.661,1.21,1.25,1.15,1.14,1.21

# — the supplement of paper PMC10307832
